From patent US9187523B2 (priority 2006, dated 2015)

Target: plasminogen activator (Pla) (Yersinia pestis, UniProt P17811)
Format: biochemical

plasminogen activator (Pla), sequence (P17811 21-312 limits assumed): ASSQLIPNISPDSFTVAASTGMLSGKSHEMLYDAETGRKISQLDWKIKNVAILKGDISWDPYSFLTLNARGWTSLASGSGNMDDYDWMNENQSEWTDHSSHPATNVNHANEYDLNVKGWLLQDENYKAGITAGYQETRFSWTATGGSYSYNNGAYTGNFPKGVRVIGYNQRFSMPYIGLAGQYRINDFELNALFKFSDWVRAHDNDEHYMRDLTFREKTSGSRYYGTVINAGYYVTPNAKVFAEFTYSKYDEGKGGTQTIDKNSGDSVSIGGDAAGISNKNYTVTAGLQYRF

## pepstatin A
  block of plasminogen activator activity: did not block
